In patent US20240002425A1, “NOVEL AMINOALKYL GLUCOSAMINIDE 4-PHOSPHATE DERIVATIVE” (DAIICHI SANKYO COMPANY, LIMITED, priority 2020, published 2024):

Molecular target: human TLR4 (Homo sapiens, UniProt O00206+Q9Y6Y9)
Assay: Human TLR4 activating effect (HEK-Blue Human TLR4 Cells, SEAP reporter)
Assay type: cell-based
Conditions: 24 hours, SEAP Protein concentration, read-out: EC50 (ng/ml) (converted)
Method: The human TLR4 activating effect was studied using the compounds described in Examples 1 to 17 and monophosphoryl lipid A as Comparative Example A.
Triethanolamine was dissolved at 0.5% (v/v) in injectable distilled water to prepare an aqueous triethanolamine solution. 1 mg of each test drug was dissolved in 0.98 mL of the aqueous triethanolamine solution, and pH of the solution was then adjusted to 7.2 to 7.4 by the addition of 20 μL of 1 M HCl to prepare a 1 mg/mL solution. A dilution series of the test drug was prepared using a medium [DMEM (Nacalai Tesque, Inc.), 10% FBS (Sigma-Aldrich Co. LLC), 50 U/mL penicillin-50 μg/mL streptomycin (Thermo Fisher Scientific Inc.), 1×HEK-Blue Selection (InvivoGen), and 100 μg/mL Normocin (InvivoGen)]. 2×10^5 cells/mL HEK-Blue™ Human TLR4 Cells (InvivoGen) were inoculated to each well of a 96-well microplate for tissue culture (Iwaki), then treated with the test drug, and cultured at 37° C. for 24 hours under 5% CO2. The cells thus cultured were centrifuged at 400×g at 4° C. for 3 minutes. Recombinant SEAP Protein (InvivoGen) was used for a calibration curve. After addition of 180 μL of QUANTI-Blue (InvivoGen) to each well of 96 Well TC-Treated Microplates (Corning, Inc.), 20 μL each of the cell culture supernatant and a standard diluting solution was added to each well, and the plate was left standing at 37° C. for 4 hours. After reaction, absorbance (wavelength: 655 nm) was measured using a microplate reader (PerkinElmer, Inc., EnSpire), and a SEAP Protein concentration was calculated from the calibration curve and used as an index for TLR4 agonist activity. A drug concentration that induced reaction corresponding to 50% of the maximum reaction was calculated as EC50 (ng/mL) from a linear expression using two drug concentrations between which the drug concentration that induced reaction corresponding to 50% of the maximum reaction in each experiment was positioned, and measured values thereof.

Chain of human TLR4 (O00206 24-839): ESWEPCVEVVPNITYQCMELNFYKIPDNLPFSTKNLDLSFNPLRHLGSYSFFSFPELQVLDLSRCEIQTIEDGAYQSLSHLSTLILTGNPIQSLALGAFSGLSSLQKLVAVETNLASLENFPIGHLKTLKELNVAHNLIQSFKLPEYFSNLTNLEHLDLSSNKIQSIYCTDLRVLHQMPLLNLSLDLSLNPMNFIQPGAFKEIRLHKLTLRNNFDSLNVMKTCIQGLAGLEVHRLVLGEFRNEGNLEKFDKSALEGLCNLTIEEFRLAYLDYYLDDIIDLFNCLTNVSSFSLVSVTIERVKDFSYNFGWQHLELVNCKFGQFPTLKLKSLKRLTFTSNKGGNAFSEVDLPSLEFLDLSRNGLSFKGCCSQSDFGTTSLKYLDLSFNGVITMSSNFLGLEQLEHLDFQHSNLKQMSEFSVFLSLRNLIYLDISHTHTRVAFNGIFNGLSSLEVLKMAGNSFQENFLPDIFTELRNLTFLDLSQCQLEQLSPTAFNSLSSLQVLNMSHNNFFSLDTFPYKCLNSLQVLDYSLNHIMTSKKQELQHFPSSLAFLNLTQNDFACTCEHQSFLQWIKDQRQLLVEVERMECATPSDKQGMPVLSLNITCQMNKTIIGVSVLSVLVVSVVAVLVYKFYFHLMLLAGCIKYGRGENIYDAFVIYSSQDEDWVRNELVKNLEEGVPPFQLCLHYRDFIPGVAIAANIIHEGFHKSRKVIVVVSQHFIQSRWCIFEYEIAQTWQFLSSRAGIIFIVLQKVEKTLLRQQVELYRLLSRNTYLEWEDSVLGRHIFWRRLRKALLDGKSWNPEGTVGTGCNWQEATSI
Chain of human TLR4 (Q9Y6Y9 17-160 limits assumed): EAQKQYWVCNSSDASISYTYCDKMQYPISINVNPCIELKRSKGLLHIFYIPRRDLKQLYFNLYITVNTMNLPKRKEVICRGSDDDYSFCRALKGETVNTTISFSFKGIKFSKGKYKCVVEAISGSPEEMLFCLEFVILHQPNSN

SMILES	EC50 [nM]
CCCCCCCCCCC[C@H](CC(=O)N[C@@H](CO[C@@H]1O[C@H](CO)[C@@H](OP(=O)(O)O)[C@H](OC(=O)C[C@@H](CCCCCCCCCCC)OC(=O)CCCCCCCCC)[C@H]1NC(=O)C[C@@H](CCCCCCCCCCC)OC(=O)CCCCCCCCC)CC(=O)O)OC(=O)CCCCCCCCC [Example 1(1k), Bisammonium (3R)-3-{[(3R)-3-(decanoyloxy)tetradecanoyl]amino}-4-({3-O-[(3R)-3-(decanoyloxy)tetradecanoyl]-2-{[(3R)-3-(decanoyloxy)tetradecanoyl]amino}-2-deoxy-4-O-phosphono-β-D-glucopyranosyl}oxy)butanoate]	0.612
CCCCCCCCCCC[C@H](CC(=O)NC1C(OC[C@@H](CC(=O)O)NC(=O)C[C@@H](CCCCCCCCCCC)OC(=O)CCCCCCCCC)OC(COC2(C(=O)O)CC(OC3(C(=O)O)CC(O)C(O)C([C@H](O)CO)O3)C(O)C([C@H](O)CO)O2)C(OP(=O)(O)O)C1OC(=O)C[C@@H](CCCCCCCCCCC)OC(=O)CCCCCCCCC)OC(=O)CCCCCCCCC (stereo partly drawn) [Example 3(3d), Ammonium (3R)-3-{[(3R)-3-(decanoyloxy)tetradecanoyl]amino}-4-{[3-deoxy-α-D-manno-oct-2-ulopyranonosyl-(2-+4)-3-deoxy-α-D-manno-oct-2-ulopyranonosyl-(2-+6)-3-O-[(3R)-3-(decanoyloxy)tetradecanoyl]-2-{[(3R)-3-(decanoyloxy)tetradecanoyl]amino}-2-deoxy-4-O-phosphono-β-D-glucopyranosyl]oxy}butanoate]	0.422
CCCCCCCCCCC[C@H](CC(=O)N[C@H]1[C@H](OC[C@H](NC(=O)C[C@@H](CCCCCCCCCCC)OC(=O)CCCCCCCCC)C(=O)O)O[C@H](CO[C@]2(C(=O)O)C[C@@H](O)[C@@H](O)[C@@H]([C@H](O)CO)O2)[C@@H](OP(=O)(O)O)[C@@H]1OC(=O)C[C@@H](CCCCCCCCCCC)OC(=O)CCCCCCCCC)OC(=O)CCCCCCCCC [Example 4(4d), Ammonium (2S)-2-{[(3R)-3-(decanoyloxy)tetradecanoyl]amino}-3-({3-O-[(3R)-3-(decanoyloxy)tetradecanoyl]-2-{[(3R)-3-(decanoyloxy)tetradecanoyl]amino}-2-deoxy-6-O-(3-deoxy-α-D-manno-oct-2-ulopyranonosyl)-4-O-phosphono-β-D-glucopyranosyl}oxy)propanoate]	0.328
CCCCCCCCCCC[C@H](CC(=O)NC1C(OC[C@H](NC(=O)C[C@@H](CCCCCCCCCCC)OC(=O)CCCCCCCCC)C(=O)O)OC(COC2(C(=O)O)CC(OC3(C(=O)O)CC(O)C(O)C([C@H](O)CO)O3)C(O)C([C@H](O)CO)O2)C(OP(=O)(O)O)C1OC(=O)C[C@@H](CCCCCCCCCCC)OC(=O)CCCCCCCCC)OC(=O)CCCCCCCCC (stereo partly drawn) [Example 5(5d), Ammonium (2S)-2-{[(3R)-3-(decanoyloxy)tetradecanoyl]amino}-3-{[3-deoxy-α-D-manno-oct-2-ulopyranonosyl-(2-+4)-3-deoxy-α-D-manno-oct-2-ulopyranonosyl-(2-+6)-3-O-[(3R)-3-(decanoyloxy)tetradecanoyl]-2-{[(3R)-3-(decanoyloxy)tetradecanoyl]amino}-2-deoxy-4-O-phosphono-β-D-glucopyranosyl]oxy}propanoate]	0.187
CCCCCCCCCCC[C@H](CC(=O)NC1C(OC[C@H](NC(=O)C[C@@H](CCCCCCCCCCC)OC(=O)CCCCCCCCC)C(=O)O)OC(COC2OC(C(=O)O)C(O)C(O)C2O)C(OP(=O)(O)O)C1OC(=O)C[C@@H](CCCCCCCCCCC)OC(=O)CCCCCCCCC)OC(=O)CCCCCCCCC (stereo partly drawn) [Example 6(6b), Ammonium (2S)-2-{[(3R)-3-(decanoyloxy)tetradecanoyl]amino}-3-({3-O-[(3R)-3-(decanoyloxy)tetradecanoyl]-2-{[(3R)-3-(decanoyloxy)tetradecanoyl]amino}-2-deoxy-6-β-D-glucopyranuronosyl-4-O-phosphono-β-D-glucopyranosyl}oxy)propanoate]	0.0661
CCCCCCCCCCC[C@H](CC(=O)N[C@H]1[C@H](OC[C@H](NC(=O)C[C@@H](CCCCCCCCCCC)OC(=O)CCCCCCCCC)C(=O)O)O[C@H](CO[C@@H]2O[C@H](CO)[C@@H](O)[C@H](O)[C@H]2NC(C)=O)[C@@H](OP(=O)(O)O)[C@@H]1OC(=O)C[C@@H](CCCCCCCCCCC)OC(=O)CCCCCCCCC)OC(=O)CCCCCCCCC [Example 7(7c), Ammonium (2S)-3-{[6-O-(2-acetamido-2-deoxy-β-D-glucopyranosyl)-3-O-[(3R)-3-(decanoyloxy)tetradecanoyl]-2-{[(3R)-3-(decanoyloxy)tetradecanoyl]amino}-2-deoxy-4-O-phosphono-β-D-glucopyranosyl]oxy}-2-{[(3R)-3-(decanoyloxy)tetradecanoyl]amino}propanoate]	0.396
CCCCCCCCCCC[C@H](CC(=O)N[C@H]1[C@H](OC[C@H](NC(=O)C[C@@H](CCCCCCCCCCC)OC(=O)CCCCCCCCC)C(=O)O)O[C@H](CO[C@@H]2O[C@H](CO)[C@@H](OP(=O)(O)O)[C@H](O)[C@H]2NC(C)=O)[C@@H](OP(=O)(O)O)[C@@H]1OC(=O)C[C@@H](CCCCCCCCCCC)OC(=O)CCCCCCCCC)OC(=O)CCCCCCCCC [Example 8(8f), Ammonium (2S)-3-({6-O-[2-acetamido-2-deoxy-4-O-(hydroxyphosphinato)-β-D-glucopyranosyl]-3-O-[(3R)-3-(decanoyloxy)tetradecanoyl]-2-{[(3R)-3-(decanoyloxy)tetradecanoyl]amino}-2-deoxy-4-O-phosphono-β-D-glucopyranosyl}oxy)-2-{[(3R)-3-(decanoyloxy)tetradecanoyl]amino}propanoate]	0.35
CCCCCCCCCCC[C@H](CC(=O)N[C@H]1[C@H](OC[C@H](NC(=O)C[C@@H](CCCCCCCCCCC)OC(=O)CCCCCCCCC)C(=O)O)O[C@H](CO[C@@H]2O[C@H](COP(=O)(O)O)[C@@H](O)[C@H](O)[C@H]2NC(C)=O)[C@@H](OP(=O)(O)O)[C@@H]1OC(=O)C[C@@H](CCCCCCCCCCC)OC(=O)CCCCCCCCC)OC(=O)CCCCCCCCC [Example 9(9e), Ammonium (2S)-3-({6-O-[2-acetamido-2-deoxy-6-O-(hydroxyphosphinato)-β-D-glucopyranosyl]-3-O-[(3R)-3-(decanoyloxy)tetradecanoyl]-2-{[(3R)-3-(decanoyloxy)tetradecanoyl]amino}-2-deoxy-4-O-phosphono-β-D-glucopyranosyl}oxy)-2-{[(3R)-3-(decanoyloxy)tetradecanoyl]amino}propanoate]	0.288
CCCCCCCCCCC[C@H](CC(=O)NC1C(CC[C@@H](CC(=O)O)NC(=O)C[C@@H](CCCCCCCCCCC)OC(=O)CCCCCCCCC)OC(CO)C(OP(=O)(O)O)C1OC(=O)C[C@@H](CCCCCCCCCCC)OC(=O)CCCCCCCCC)OC(=O)CCCCCCCCC (stereo partly drawn) [Example 10(10r), Ammonium 6,10-anhydro-8-O-[(3R)-3-(decanoyloxy)tetradecanoyl]-3,7-bis{[(3R)-3-(decanoyloxy)tetradecanoyl]amino}-2,3,4,5,7-pentadeoxy-9-O-phosphono-D-erythro-L-galacto-undecanoate]	0.667
CCCCCCCCCCC[C@H](CC(=O)NC1C(CC[C@@H](CC(=O)O)NC(=O)C[C@@H](CCCCCCCCCCC)OC(=O)CCCCCCCCC)OC(COC2(C(=O)O)CC(O)C(O)C([C@H](O)CO)O2)C(OP(=O)(O)O)C1OC(=O)C[C@@H](CCCCCCCCCCC)OC(=O)CCCCCCCCC)OC(=O)CCCCCCCCC (stereo partly drawn) [Example 11(11d), Ammonium 6,10-anhydro-8-O-[(3R)-3-(decanoyloxy)tetradecanoyl]-3,7-bis{[(3R)-3-(decanoyloxy)tetradecanoyl]amino}-2,3,4,5,7-pentadeoxy-11-O-(3-deoxy-α-D-manno-oct-2-ulopyranonosyl)-9-O-phosphono-D-erythro-L-galacto-undecanoate]	0.291
CCCCCCCCCCC[C@H](CC(=O)NC1C(CC[C@@H](CC(=O)O)NC(=O)C[C@@H](CCCCCCCCCCC)OC(=O)CCCCCCCCC)OC(COC2(C(=O)O)CC(OC3(C(=O)O)CC(O)C(O)C([C@H](O)CO)O3)C(O)C([C@H](O)CO)O2)C(OP(=O)(O)O)C1OC(=O)C[C@@H](CCCCCCCCCCC)OC(=O)CCCCCCCCC)OC(=O)CCCCCCCCC (stereo partly drawn) [Example 12(12d), Ammonium 3-deoxy-α-D-manno-oct-2-ulopyranonosyl-(2-+4)-3-deoxy-α-D-manno-oct-2-ulopyranonosyl-(2-+11)-6,10-anhydro-8-O-[(3R)-3-(decanoyloxy)tetradecanoyl]-3,7-bis{[(3R)-3-(decanoyloxy)tetradecanoyl]amino}-2,3,4,5,7-pentadeoxy-9-O-phosphono-D-erythro-L-galacto-undecanoate]	0.67
CCCCCCCCCCC[C@H](CC(=O)NC1C(CC[C@H](NC(=O)C[C@@H](CCCCCCCCCCC)OC(=O)CCCCCCCCC)C(=O)O)OC(CO)C(OP(=O)(O)O)C1OC(=O)C[C@@H](CCCCCCCCCCC)OC(=O)CCCCCCCCC)OC(=O)CCCCCCCCC (stereo partly drawn) [Example 13(130), Ammonium 5,9-anhydro-7-O-[(3R)-3-(decanoyloxy)tetradecanoyl]-2,6-bis{[(3R)-3-(decanoyloxy)tetradecanoyl]amino}-2,3,4,6-tetradeoxy-8-O-phosphono-D-erythro-L-galacto-decanoate]	1.61
